Literature values as cited in patent publication US20170327462A1, “(Z)-3,4,5-TRIMETHOXYSTYRYLBENZENESULFONAMIDES AS POTENTIAL ANTICANCER AGENTS” (COUNCIL OF SCIENTIFIC & INDUSTRIAL RESEARCH, priority 2014, published 2017).

Test system: tubulin
Details: binding at colchicine binding site; J. Med. Chem. 2008, 51, 6211; cited from earlier work

In the case of COc1cc(/C=C\c2ccc(OC)c(N)c2)cc(OC)c1 [(Z)-5-(3,5-dimethoxystyryl)-2-methoxyaniline], the “inhibition of tubulin polymerization relative to CA-4” value is given as “five times stronger than CA-4”.
